Consider one compound from patent US12285392B2, “Method for modulating metabolism” (Brightseed, Inc., priority 2018, dated 2025).

The subject of the assay is T6PNE cells. Nature of the assay: Lipid clearance in T6PNE cells (steatosis assay). The format is cell-based. On the procedure:
T6PNE cells were pretreated for 1 day with 0.06 mM, 0.12 mM or 0.25 mM palmitate at which time 15 μM N-trans-caffeoyltyramine or control (DMSO) was added. Cells were harvested on day 3, 6 and 8 and subjected to staining with Nile Red and Oil Red O. Results are expressed as fold change in Nile Red staining: +palmitate/10% FBS medium (no palmitate)
Lipid Clearance in HepG2 and T6PNE Cells (Steatosis Assay). The steatosis assay was carried out as described (Kiselyuk, et al. (2012) Chem. Biol. 19(7):806-818) with the exception of the drug concentration, which was 20 μM for N-trans-caffeoyltyramine with 0.25 mM palmitate in HepG2 cell lines, and 10 μM of either N-trans-caffeoyltyramine, N-trans-caffeoyltyramine, or pcoumaroyltyramine, with 0.25 mM palmitate in T6PNE cell lines. Steatosis was assessed using the Oil Red 0 Method for Fats kits (Poly Scientific; Warrington, PA), per manufacturer's guidelines. Briefly, frozen tissue slides or fixed cells were incubated in neat propylene glycol for 2 minutes and Oil Red 0 solution for 15 hours for slides or 1 hour for fixed cells, differentiated in 85% propylene glycol solution for 1 minute, washed twice with distilled water and stained in Hematoxylin of 10 seconds. Slides were mounted with glycerin jelly mounting medium.

SMILES strings stand for the structures.

Turning to `O=C(/C=C/c1ccc(O)c(O)c1)NCCc1ccc(O)cc1` [N-trans-caffeoyltyramine], the Fat accumulation entry (10 μM, 0.25 mM palmitate) is “inhibition of fat accumulation”. Besides, where the note is “FIG. 6, 15 μM”, the “Lipid accumulation when palmitate was added prior to compound” value is reported as “reduced lipid accumulation”.
